# Measured values taken from patent US9670227B2, “Thienopyrimidine derivatives, a process for their preparation and pharmaceutical compositions containing them” (LES LABORATOIRES SERVIER, priority 2013, dated 2017).
# Read-outs that look alike come from different tables or passages of the source.
# Target: Mcl-1 protein (UniProtKB primary accession number: Q07820) (Homo sapiens, UniProt Q07820)
# Assay: Inhibition of Mcl-1 by fluorescence polarisation, Method 1
# Type: binding
# Conditions: for IC50: read-out: IC50 (M) Mcl-1 FP
# Method in brief: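 An 11-point DMSO dilution of compound is mixed with buffer (10 mM HEPES, 150 mM NaCl, 0.05% Tween 20, pH 7.4) carrying 1 nM fluorescein-labelled ligand and 5 nM Mcl-1, final concentrations. Displacement is monitored by fluorescence polarisation.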
# [1] = fluorescence polarisation, Method 1, or Method 2
# [2] = fluorescence polarisation test, Method 2 values are underlined in the patent (underlining not visible here)
# [3] = fluorescence polarisation test, Method 1, or Method 2 where the value is underlined (underlining not visible)
# Chain of Mcl-1 protein (Q07820 whole entry): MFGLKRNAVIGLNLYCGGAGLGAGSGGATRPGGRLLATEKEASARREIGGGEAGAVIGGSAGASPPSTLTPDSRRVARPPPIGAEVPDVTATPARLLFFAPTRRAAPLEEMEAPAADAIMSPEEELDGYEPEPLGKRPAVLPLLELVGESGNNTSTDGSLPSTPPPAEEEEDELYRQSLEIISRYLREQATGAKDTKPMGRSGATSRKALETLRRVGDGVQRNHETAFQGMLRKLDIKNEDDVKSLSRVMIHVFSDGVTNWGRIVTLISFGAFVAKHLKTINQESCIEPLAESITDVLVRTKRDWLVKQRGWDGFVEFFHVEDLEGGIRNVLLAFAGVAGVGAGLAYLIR
IC50 [1],SMILES,other results
1e-07 M,"COc1ccc(-c2c(-c3ccc(F)cc3)sc3ncnc(OC(Cc4ccccc4OCCN4CCN(C)CC4)C(=O)O)c23)c(C)c1Cl [Example 661, (2R)-2-{[(5Sa)-5-(3-chloro-4-methoxy-2-methylphenyl)-6-(4-fluorophenyl)thieno[2,3-d]pyrimidin-4-yl]oxy}-3-{2-[2-(4-methylpiperazin-1-yl)ethoxy]phenyl}propanoic acid]",
6.44e-06 M,"CC#Cc1sc2ncnc(OC(Cc3ccccc3OCc3ccnn3C(C)(C)C)C(=O)OCC)c2c1-c1ccc(OCCN2CCN(C)CC2)c(Cl)c1C [Example 792, ethyl (2R)-3-{2-[(1-tert-butyl-1H-pyrazol-5-yl)methoxy]phenyl}-2-{[(5Sa)-5-{3-chloro-2-methyl-4-[2-(4-methylpiperazin-1-yl)ethoxy]phenyl}-6-(prop-1-yn-1-yl)thieno[2,3-d]pyrimidin-4-yl]oxy}propanoate]",
1e-06 M,"CC#Cc1sc2ncnc(O[C@H](Cc3ccccc3OC)C(=O)O)c2c1-c1ccc(OCCN2CCN(C)CC2)c(F)c1C [Example 686, (2R)-2-{[(5Ra)-5-{3-fluoro-2-methyl-4-[2-(4-methylpiperazin-1-yl)ethoxy]phenyl}-6-(prop-1-yn-1-yl)thieno[2,3-d]pyrimidin-4-yl]oxy}-3-(2-methoxyphenyl)propanoic acid]",
2.7e-07 M,"COc1ccc(-c2c(-c3ccc(F)cc3)sc3ncnc(OC(Cc4ccccc4OCCN(C)C)C(=O)O)c23)c(C)c1Cl [Example 662, (2R)-2-{[(5Sa)-5-(3-chloro-4-methoxy-2-methylphenyl)-6-(4-fluorophenyl)thieno[2,3-d]pyrimidin-4-yl]oxy}-3-{2-[2-(dimethylamino)ethoxy]phenyl}propanoic acid]",

# Continued, compound first:
SMILES,IC50 [1],other results
"CCc1sc2ncnc(OC(Cc3ccccc3)C(=O)O)c2c1-c1ccc(OCCN(C)C)cc1C [Example 409, (2R)-2-[((5Sa)-5-{4-[2-(dimethylamino)ethoxy]-2-methylphenyl}-6-ethylthieno[2,3-d]pyrimidin-4-yl)oxy]-3-phenylpropanoic acid]",2e-07 M,
"COc1ccccc1CC(Oc1ncnc2sc(-c3ccc(F)o3)c(-c3ccc(OCCN4CCN(C)CC4)c(Cl)c3C)c12)C(=O)O [Example 149, (2R)-2-{[(5Sa)-5-{3-chloro-2-methyl-4-[2-(4-methylpiperazin-1-yl)ethoxy]phenyl}-6-(5-fluorofuran-2-yl)thieno[2,3-d]pyrimidin-4-yl]oxy}-3-(2-methoxyphenyl)propanoic acid]",,IC50 [2]: 1.2e-08 M
"CCc1sc2ncnc(OC(Cc3ccccc3)C(=O)O)c2c1-c1cccc(O)c1C [Example 452, (2R)-2-{[6-ethyl-(5Sa)-5-(3-hydroxy-2-methylphenyl)thieno[2,3-d]pyrimidin-4-yl]oxy}-3-phenylpropanoic acid and (2S)-2-{[6-ethyl-(5Ra)-5-(3-hydroxy-2-methylphenyl)thieno[2,3-d]pyrimidin-4-yl]oxy}-3-phenylpropanoic acid]",3e-07 M,
"Cc1c(-c2c(-c3ccco3)sc3ncnc(O[C@@H](C(=O)O)c4ccccc4)c23)ccc(OCCN2CCN(C)CC2)c1Cl [Example 339, (2R)-{[(5Ra)-5-{3-chloro-2-methyl-4-[2-(4-methylpiperazin-1-yl)ethoxy]phenyl}-6-(furan-2-yl)thieno[2,3-d]pyrimidin-4-yl]oxy}(phenyl)ethanoic acid]",,"percentage fluorescence polarisation inhibition (Mcl-1 FP), partial inhibitors (@ 10 uM test compound): 18.85% @ 10 uM"
"Cc1c(-c2c(-c3ccc(F)cc3)sc3ncnc(OC(Cc4ccccc4OCc4ccccn4)C(=O)O)c23)ccc(OCCN2CCN(C)CC2)c1Cl [Example 14, (2R)-2-{[(5Sa)-5-{3-chloro-2-methyl-4-[2-(4-methylpiperazin-1-yl)ethoxy]phenyl}-6-(4-fluorophenyl)thieno[2,3-d]pyrimidin-4-yl]oxy}-3-[2-(pyridin-2-ylmethoxy)phenyl]propanoic acid]",,IC50 [2]: 1.3e-08 M
"COc1ccccc1CC(Oc1ncnc2sc(-c3cccc(Oc4ccc(F)cc4)c3)c(-c3ccc(OCCN4CCN(C)CC4)c(Cl)c3C)c12)C(=O)O [Example 556, (2R)-2-[((5Sa)-5-{3-chloro-2-methyl-4-[2-(4-methylpiperazin-1-yl)ethoxy]phenyl}-6-[3-(4-fluorophenoxy)phenyl]thieno[2,3-d]pyrimidin-4-yl)oxy]-3-(2-methoxyphenyl)propanoic acid]",1.2e-08 M,
"COCCOC(=O)[C@@H](Cc1ccccc1OCc1ccnc(-c2ccccc2F)n1)Oc1ncnc2sc(-c3ccc(F)cc3)c(-c3ccc(OCCN(C)C)c(Cl)c3C)c12 [Example 799, 2-methoxyethyl (2R)-2-{[(5Sa)-5-{3-chloro-4-[2-(dimethylamino)ethoxy]-2-methylphenyl}-6-(4-fluorophenyl)thieno[2,3-d]pyrimidin-4-yl]oxy}-3-(2-{[2-(2-fluorophenyl)pyrimidin-4-yl]methoxy}phenyl)propanoate]",,"percentage fluorescence polarisation inhibition (Mcl-1 FP), partial inhibitors (test compound at 10 uM, Method 1, or Method 2 where the value is underlined (underlining not visible)): 59.6% @ 10 uM"
"Cc1c(-c2c(-c3ccc(F)cc3)sc3ncnc(OC(Cc4ccccc4OCc4ccnc(-c5cccnc5)n4)C(=O)O)c23)ccc(OCCN2CCN(C)CC2)c1Cl [Example 32, (2R)-2-{[(5Sa)-5-{3-chloro-2-methyl-4-[2-(4-methylpiperazin-1-yl)ethoxy]phenyl}-6-(4-fluorophenyl)thieno[2,3-d]pyrimidin-4-yl]oxy}-3-(2-{[2-(pyridin-3-yl)pyrimidin-4-yl]methoxy}phenyl)propanoic acid]",,IC50 [2]: 4.8e-09 M
"CC#Cc1sc2ncnc(O[C@H](Cc3ccccc3OC)C(=O)O)c2c1-c1cc(F)c(OC)c(Cl)c1C (single isomer, unassigned) [Example 471]",6.3e-09 M,
"CCc1sc2ncnc(OC(Cc3ccccc3)C(=O)O)c2c1-c1cc(Cl)c(O)cc1C [Example 438, (2R)-2-{[(5Sa)-5-(5-chloro-4-hydroxy-2-methylphenyl)-6-ethylthieno[2,3-d]pyrimidin-4-yl]oxy}-3-phenylpropanoic acid]",8.5e-08 M,
"COc1ccccc1-c1nccc(COc2ccccc2CC(Oc2ncnc3sc(-c4ccc(F)cc4)c(-c4ccc(OCCN5CCN(C)CC5)c(Cl)c4C)c23)C(=O)OC(C)OC(=O)C(C)(C)C)n1 [Example 859, 1-{[(2R)-2-{[(5Sa)-5-{3-chloro-2-methyl-4-[2-(4-methylpiperazin-1-yl)ethoxy]phenyl}-6-(4-fluorophenyl)thieno[2,3-d]pyrimidin-4-yl]oxy}-3-(2-{[2-(2-methoxyphenyl)pyrimidin-4-yl]methoxy}phenyl)propanoyl]oxy}ethyl 2,2-dimethylpropanoate]",,IC50 [3]: 1.13e-06 M
"CCc1sc2ncnc(OC(Cc3ccccc3)C(=O)O)c2c1-c1ccc(OCc2ccccc2)c(Cl)c1C [Example 394, (2R)-2-({(5Sa)-5-[4-(benzyloxy)-3-chloro-2-methylphenyl]-6-ethylthieno[2,3-d]pyrimidin-4-yl}oxy)-3-phenylpropanoic acid]",3.4e-08 M,
"COc1ccccc1-c1nccc(COc2ccccc2CC(Oc2ncnc3sc(-c4ccc(F)cc4)c(-c4ccc(OCCN5CCN(C)CC5)c(Cl)c4C)c23)C(=O)OC(C)OC(C)=O)n1 [Example 858, 1-(acetyloxy)ethyl (2R)-2-{[(5Sa)-5-{3-chloro-2-methyl-4-[2-(4-methylpiperazin-1-yl)ethoxy]phenyl}-6-(4-fluorophenyl)thieno[2,3-d]pyrimidin-4-yl]oxy}-3-(2-{[2-(2-methoxyphenyl)pyrimidin-4-yl]methoxy}phenyl)propanoate]",,IC50 [3]: 2.11e-07 M
